This assay concerns ECOs. The experiment in a line: Response to secretin and somatostatin (organoid diameter). It is filed as cell-based, human. The settings on record: ECOs exposed to secretin, compared to untreated controls. Here is the method: Responses to secretin and somatostatin were assessed as described in Sapazoits F, et al. (Biotechnol. 2015 1-11).
We then further characterized ECOs by focusing on their function following long-term culture (20 passages). The biliary epithelium regulates the homeostasis of bile through the transport of ions, water and bile acids. The secretory capacity of ECOs was interrogated using Rhodamine-123, a fluorescent substrate for the cholangiocyte surface glycoprotein Multidrug Resistance protein-1 (MDR1) (FIGS. 10 and 11). […]. […] The response of ECOs to secretin and somatostatin was also assessed. Secretin promotes water secretion, distending the bile duct lumen, while somatostatin negates the effects of secretin.

Regarding secretin, the organoid diameter entry was “increased their diameter compared to untreated controls”.
